Assays:
[1] = system: Human osteoblasts (SaM-1); experiment: Calcification of osteoblasts (Ca content of extracellular matrix, OCPC method); assay type: cell-based; details: DHNA 10^-7 M to 10^-5 M, 2 mM α-glycerophosphoric acid, culturing for 32 days, vs 0.1% DMSO control (FIG. 4)
Protocol: Human osteoblasts (SaM-1), which had been cultured from long bone periosteum of a person obtained during fracture surgery, were employed. […] SaM-1 has been known to promote calcification in the presence of 2 mM of α-glycerophosphoric acid in a 1α, 25 (OH)2D3 concentration-dependent manner (Koshihara, Y. et al.: Biochem. Biophys. Res. commun., 145: 651-657, 1987).
The above-obtained SaM-1 cells of 18 PDL (population doubling level) were inoculated into a 12-well plate, and cultured until the cells reached a confluent state. Subsequently, α-glycerophosphoric acid, which is a calcification promoting agent, was added to the resultant culture broth such that the α-glycerophosphoric acid content became 2 mM. DHNA (10^−7 M to 10^−5 M) was added to the culture broth, followed by culturing for 32 days. For a control, DMSO (a solvent) was added to the culture broth such that the DMSO content became 0.1%. […]
The Ca content of extracellular matrix was quantified by use of a kit (Calcium C Test Wako) based on the o-cresolphthalein complexone method (OCPC method) (Gitleman, H. J.: Anal. Biochem., 18: 520-531, 1967).
After completion of culturing, the resultant cells were washed with a Hanks' solution. […] Thereafter, the resultant reaction mixture was subjected to measurement by use of an absorbance meter (570 nm) (FIG. 4).

[2] = system: ICR male mice; experiment: Animal model with osteoporosis induced by FK-506; assay type: in vivo; details: DHNA 75 μg/kg orally every day, FK-506 1 mg/kg i.p. for 10 weeks, vs control group (FK 506 (+)) (FIG. 5)
Protocol: As has been known, administration of FK-506, which is known as an immunosuppressive agent, to an animal induces osteoporosis-like conditions (J. Hard Tissue Biology, 103-107, 10 (2), 2001). […] FK-506 (1 mg/kg) was intraperitoneally administered to ICR male mice (eight weeks old) for 10 consecutive weeks. During the 10-week FK-506 administration, a feed (CRF-1, product of Oriental Yeast Co., Ltd.) was arbitrarily ingested into the mice, and DHNA (75 μg/kg) which had been suspended in a 1% aqueous DMSO (dimethyl sulfoxide) solution was orally administered to each of the mice every day.

Compound: O=C(O)c1cc(O)c2ccccc2c1O [DHNA, 1,4-dihydroxy-2-naphthoic acid]
- degree of calcification (amount of Ca) [1]: promotes calcification in a concentration-dependent manner
- bone density [2]: significantly higher than that of the mice in the control group

— patent publication US7834061B2, “Process for producing 1,4-dihydroxy-2-naphthoic acid” (Meiji Dairies Corporation, priority 2001, dated 2010)
